What all share (format): cell-based, human
In assay [1] the test system is PI3-kinase phosphorylation. Description: Western blotting of FcεRI-activated phospho-signaling in MC: PI3-kinase. To be noted: 10 μg/mL overnight. As to the method:
(§1) Cell lysate preparation and Western blotting were performed using a protocol optimized for extracting phospho-proteins from human MC. Tkaczyk, C., Metcalfe, D. D., and Gilfillan, A. M. J. Immunol. Methods 268, 239-243 (2002). Following activation, cells were lysed directly in boiling denaturing sample buffer consisting of tris-buffered saline with triton-X-100 (0.5%) and protease and phosphatase inhibitors. The cell suspension was then passed through a 20-gauge needle, boiled, and centrifuged to remove cell debris. Proteins were separated on 8% or 10% NuPage Tris-Bis gels using Licor running buffer. Western blotting was performed using Licor blocking buffer and IR800 and IR700 anti-rabbit F(ab)2 secondary Abs (1:1000). Primary Abs were from Cell Signaling Technologies or Santa Cruz unless otherwise noted. Band intensities were captured using the Odyssey Imaging System and bands quantified by measuring the number of pixels in each band using a box drawn for the same area of measurement for each separate blot. The band intensity was then normalized for loading by dividing the number of pixels in each band with the housekeeping band intensity (β-actin) performed on the same blot.
(§2) MC were pretreated with Inos or TGA (10 μg/mL) overnight at 37° C./6% CO2. The next day washed cells were activated with or without anti-FcεRI (1 μg/mL) for the indicated times and lysed using protocols described above. Two separate 10% Tris-Glycine gels were used for sodium dodecyl sulfate polyacrylamide gel electrophoresis (SDS-PAGE) and Western blotting performed with the indicated phosphorylation-specific (i.e., phosph-Lyn) antibodies. To ensure equal loading, an antiactin antibody was used in parallel. The intensity of each band was detected and quantified using an Odyssey imaging system. Band intensities are presented as a ratio compared to antiactin band intensities probed in the same lane and presented for each time point in the colored graphs on the right side. Results are representative of three separate experiments. […]

The test system of the next assay is AKT phosphorylation. Description: Western blotting of FcεRI-activated phospho-signaling in MC: AKT. To be noted: 10 μg/mL overnight. As to the method:
as §1, §2

Another assay has as its system LAT phosphorylation. Description: Western blotting of FcεRI-activated phospho-signaling in MC: LAT. Particulars: 10 μg/mL overnight. As to the method:
as §1, §2

For assay [2], the system named is intracellular calcium stores release. In words: FcεRI-induced intracellular calcium (Fura-2) in MC. To be noted: 10 μg/mL overnight; anti-FcεRI 1 μg/mL. On the procedure:
MC were pre-treated with or without fullerene derivatives as above, washed with Tyrodes buffer supplemented with BSA, and incubated with Fura-2 AM (2 μM) for 30 minutes at 37° C. Cells were washed, stimulated with anti-FcεRI, and calcium flux measured in real time on a Perkin Elmer LS55 Spectrofluorometer. For ROS production, cells were exposed to fullerene derivatives as above. After washing, cells were re-suspended in X-Vivo medium containing 5 μM dichlorodihydrofluorescein (DCF) at 37° C. for 30 minutes, washed, and activation-induced changes in mean fluorescence was measured with excitation at 502 nm and emission at 523 nm for 15 minutes (19). The data is presented as fluorescence intensity of the 523 nm emission over time. All experiments were performed in triplicate and degranulation was measured in parallel.
Cells were incubated with or without fullerene derivative (10 μg/mL) overnight. The next day cells were challenged with anti-FcεRI (3B4; 1 μg/mL) and calcium stores release was determined by the 340/380 nm ratio (FIGS. 11A and 11B) and ROS measured by DCF detection at 523 nm (FIGS. 11C and 11D). FIGS. 11A and 11C contain cells incubated with the TGA fullerene derivative, and FIGS. 11B and 11D contain cells incubated with the Inos fullerene derivative (10 μg/mL). […]

Another assay relates to Lyn. In words: Lyn gene (microarray) and protein (Western blotting) expression in MC. As to the method: Mast cells (1×10^7 cell/condition; each condition performed in triplicate) were incubated with or without fullerene derivatives as above and incubated with or without anti-FcεRI antibodies for 10 minutes, supernatants were removed (to remove pre-formed mediators), […] Cells were centrifuged, the supernatant and the pellet immediately frozen and microarray performed using the Human Whole Genome OneArray™ gene expression profiling service (Phalanx Biotech Group). Separate samples, assayed in parallel were lysed and protein expression analyzed by Western blotting or flow cytometry (CD45) as described in Kepley, C. L., Pfeiffer, J., Wilson, B. W., Schwartz, L. B., and Oliver, J. M. J. Leukocyte Biol. 64, 474-483 (1998).
In order to examine the genes most affected by fullerene derivative preincubation the resulting values were sorted and filtered the following way. First, the mean (±SD) of the six values from each condition for each of the 30,970 genes was calculated. Second, only normalized value intensities of >100 were included so that follow up detection of protein levels would be more likely to be successful. […]

In the case of C70-tetraglycolic acid [TGA], the “reduced PI3-kinase phosphorylation” value in assay [1] (3 minutes) was 15%; in assay [1] (5 minutes), 35%; in assay [1] (10 minutes) it was 50%. For the same substance, the “inhibited AKT phosphorylation” value with AKT phosphorylation (3 minutes anti-FcεRI) is 10%; with AKT phosphorylation (5 minutes anti-FcεRI), 36%; with AKT phosphorylation (10 minutes anti-FcεRI) it was 43%. For the same substance, the entries for the “reduced LAT phosphorylation” value in the assay with LAT phosphorylation (3 minutes), with LAT phosphorylation (5 minutes) and with LAT phosphorylation (10 minutes) were 36%, 72% and 69%, respectively. The “FcεRI-induced intracellular calcium stores release” value in assay [2] was “inhibited”. For the same substance, the “Lyn gene expression levels reduced” value in the assay on Lyn (at 2 hours) is reported as 51%. The “Lyn inhibition at the protein level” value in the assay on Lyn (at 6 hours) worked out at 92%.

For the origin of these results see patent US20110251158A1, “FULLERENE THERAPIES FOR INFLAMMATION AND INHIBITION OF BUILD-UP OF ARTERIAL PLAQUE” (Luna Innovations Incorporated, priority 2008, published 2011).
